Bounds are passed on as bounds.

The results in this text go back to patent EP4729511A1, “COMPOUND OR SALT THEREOF AND METHOD FOR PRODUCING SAME, COMPOSITION, HYDROGEN PEROXIDE REMOVER, AND CYTOTOXICITY INHIBITOR” (Nagase & Co., Ltd., priority 2023, dated 2024).

For one series, the system named is HEK293 cells. In words: Evaluation of cytotoxicity inhibition: hydrogen peroxide cytotoxicity against HEK293 cells in the presence of EGT-X (WST-1). Format: cell-based. The settings on record: hydrogen peroxide 0.0015%, cultured 24 hours, WST-1 cell viability. As to the method:
After 24 hours, 50 µL each of EGT-X dissolved in a DMEM and hydrogen peroxide dissolved in a DMEM was added to the plate, so that the hydrogen peroxide concentration would be 0 for the control and 0.0015% for the others, and the EGT-X concentration would be those shown in Figures (Figures 5 and 6). […] The absorbance at 450 nm was measured.
A general note: Tetrazolium dyes change colour on reduction, which living cells bring about.

The nature of series [1]: Evaluation of hydrogen peroxide removal (OxiSelect hydrogen peroxide assay kit, ADHP/HRP fluorescence). It counts as biochemical. The settings on record: as the amount of Compound A increased (doubling dilutions from 10 µM); 4 µM hydrogen peroxide solution; 30 minutes at room temperature; control (Compound A: 0 µM) set as 100%. Here is the method:
The resulting Compound A (EGT-X) was subjected to several doubling dilutions from 10 µM with the buffer provided with a kit (OxiSelect hydrogen peroxide assay kit (manufactured by CELL BIOLABS, Inc.)), and 25 µL each of the resulting solutions was added to a 96 well plate. Also, a 4 µM solution in which hydrogen peroxide was diluted with the buffer provided with the kit was prepared, and 25 µL each of said solution was added to the 96 well plate. Further, a blank was prepared under the same conditions except for no hydrogen peroxide was added.
Subsequently, according to the protocol described in the kit, 50 µL each of a mixture of ADHP (10-acetyl-3,7-dihydroxyphenoxazine) and HRP(horseradish peroxidase) provided with the kit was added thereto, and the resulting mixture was stirred. After incubated at room temperature for 30 minutes, the fluorescence intensity was measured under the condition of excitation wavelength of 530 nm and fluorescence wavelength of 590 nm. The blank value was subtracted from each measurement value to calculate each value. The percentage values when EGT-X was added were calculated based on the control (Compound A: 0 µM) value set as 100%, and the results were plotted in a graph. (Figures 3 and 4).

For the compound `C[N+](C)(C)[C@@H](Cc1c[nH]c(Sc2[nH]c(=S)[nH]c2C[C@@H](C(=O)[O-])[N+](C)(C)C)n1)C(=O)[O-]` [Compound A], the “concentration of EGT-X in the presence of which the cytotoxicity caused by hydrogen peroxide was inhibited” value with HEK293 cells is on record as at least 125 µM. Besides, the “amount of the residual hydrogen peroxide” value in series [1] is on record as “decreased”.
